From the NIST ThermoML archive (doi:10.1021/je500917k)
Numbers after ± are expanded uncertainties.

Experiments:
[1] = 100 kPa, Liquid; for speed of sound: Frequency=2 MHz
[2] = xn = mol fraction of the nth substance listed; settings: 100 kPa, Liquid; for speed of sound: Frequency=2 MHz

CCN1CCCC1=O [1-ethyl-2-pyrrolidinone]
[1]
Settings | mass density [kg/m3] | speed of sound [m/s] | viscosity [mPa·s]
293.15 K | 997.71 ± 0.94 | 1512.1 ± 3.4 | 2.117 ± 0.053
303.15 K | 989.14 ± 0.94 | 1474.2 ± 3.4 | 1.771 ± 0.045
313.15 K | 980.56 ± 0.94 | 1436 ± 3.4 | 1.518 ± 0.039
323.15 K | 971.96 ± 0.94 | 1398.5 ± 3.4 | 1.299 ± 0.034

CCN1CCCC1=O [1-ethyl-2-pyrrolidinone] + CCNCCO
[2], x1 = 1
Settings | mass density [kg/m3] | speed of sound [m/s] | viscosity [mPa·s]
293.15 K | 997.71 ± 0.94 | 1512.1 ± 3.4 | 2.117 ± 0.053
303.15 K | 989.14 ± 0.94 | 1474.2 ± 3.4 | 1.771 ± 0.045
313.15 K | 980.56 ± 0.94 | 1436 ± 3.4 | 1.518 ± 0.039
323.15 K | 971.96 ± 0.94 | 1398.5 ± 3.4 | 1.299 ± 0.034

CCNCCO [2-(ethylamino)ethanol]
[1]
Settings | mass density [kg/m3] | speed of sound [m/s] | viscosity [mPa·s]
293.15 K | 917.79 ± 0.55 | 1442.4 ± 2.9 | 15.28 ± 0.28
303.15 K | 909.82 ± 0.56 | 1408.3 ± 2.9 | 9.59 ± 0.19
313.15 K | 901.79 ± 0.57 | 1374.5 ± 2.9 | 6.406 ± 0.13
323.15 K | 893.68 ± 0.57 | 1340.9 ± 2.9 | 4.527 ± 0.1

CNCCO [2-(methylamino)ethanol]
[1]
Settings | mass density [kg/m3] | speed of sound [m/s] | viscosity [mPa·s]
293.15 K | 941.79 ± 0.54 | 1486.5 ± 2.9 | 13.42 ± 0.25
303.15 K | 934.02 ± 0.54 | 1454.6 ± 2.9 | 8.58 ± 0.17
313.15 K | 926.18 ± 0.55 | 1422.7 ± 2.9 | 5.869 ± 0.12
323.15 K | 918.25 ± 0.55 | 1390.9 ± 2.9 | 4.096 ± 0.092

CNCCO [2-(methylamino)ethanol] + CCN1CCCC1=O
[2], x2 = 0
Settings | mass density [kg/m3] | speed of sound [m/s] | viscosity [mPa·s]
293.15 K | 941.79 ± 0.54 | 1486.5 ± 2.9 | 13.42 ± 0.25
303.15 K | 934.02 ± 0.54 | 1454.6 ± 2.9 | 8.58 ± 0.17
313.15 K | 926.18 ± 0.55 | 1422.7 ± 2.9 | 5.869 ± 0.12
323.15 K | 918.25 ± 0.55 | 1390.9 ± 2.9 | 4.096 ± 0.092
